{
  "source": "patent US6465168B1",
  "about": "“Methods and apparatus for the inactivation of viruses” (priority 1992, dated 2002)",
  "key": {"murine-C retrovirus": {"test_system": "murine-C retrovirus", "experiment": "Critical fluid viral inactivation of murine-C retrovirus in serum, polybrene enhanced titer on NIH3T3 cells", "assay_type": "cell-based", "text": "(§1) In its normal operating mode, valves PV-4 and PV-5 are opened and an aliquot of test solution is aseptically introduced through the 3-way valve PV-4 using a sterile syringe and a presterilized loading tube. The 3-way valve PV-4 is then turned so that the critical fluid recycle line communicates with the soaking chamber, and the vent valve PV-5 is closed. PV-1 is then opened, supplying the solvent to the compressor P-1. The compressor is turned on and immediately thereafter valves PV-2 and PV-3 are opened, introducing the critical fluid solvent into the high pressure circulation loop. When operating pressure is attained, the compressor is turned off and valve PV-3 is closed.\n(§2) After system stabilization, the circulation pump P-2 is turned on and its speed adjusted, typically to 75% of maximum speed or 6,750 rpm. P-2 draws both the proteinaceous product from the bottom of the soaking chamber and the critical fluid phase from the top of the same unit. The mixture is then pumped counter-clockwise, mixed by static in-line mixer and returned to the soaking chamber. After mixing for a defined residence time, P-2 is turned off. The decompression valve PV-7 is then fully opened to depressurize the soaking chamber and the high pressure circulation loop. The rate of decompression was approximately 500 psig per second when PV-7 is a ¼″ ball valve. By using a back-pressure regulator instead of a ¼″ ball valve as the decompression valve PV-7, the rate of decompression can be controlled. In some experiments, the rate of decompression was controlled to approximately 2,000 psig per minute.\n(§3) In the examples described herein, samples of a recombinant murine C-type retrovirus were prepared as follows. […] Clonal cell lines stably expressing the transfected DNA were derived and maintained as virus-producing stocks. By packaging the RNA produced by the transfected DNA into the defective particles, these cells produce infectious particles that are entirely normal with respect to overall structure, stability, and mode of infection, but containing the plasmid-derived rather that the wild type, genetic material (Mann et al., Ibid).\n(§4) Because the LNCX sequences contain the antibiotic resistance gene neo and a suitable promoter, infection of cells with the recombinant retrovirus confers upon the cells resistance to the antibiotic Geneticin (G418). Conferral of Geneticin-resistance onto cells and their progeny was therefore used as the property by which virus titers were determined. Specifically, virus stocks were prepared by culturing the virus-producing cells at high density (50% confluence) in fresh culture medium (Dulebecco's modified Eagle's medium supplemented with 10% iron-supplemented calf serum [Hyclone, Inc., Logan, UT], glutamine [1 mM], penicillin [100 U/ml] and streptomycin [100 μg/ml] for 18 hours at 37 C. in a humidified 5% CO2 atmosphere. Culture medium was harvested and passed through a 0.2 micron filter, divided into aliquots, quick frozen using a dry-ice/ethanol bath and stored at −80° C. Immediately before use, samples were warmed in a 37 C. water bath until just thawed and held on ice. Aliquots of a single virus preparation were used for the examples described below.\n(§5) After virus-containing samples were mixed with other materials and treated as described in each of the examples, they were returned to ice, and assayed within 8 hours. Titer tests were performed by seeding 35 mm-style culture dishes with a mouse fibroblast line (NIH3T3 cells) in 3 ml of the culture medium described above at a density of 10,000 cells per well the evening before the assay was to be performed. Virus samples were added to the culture medium over the cells at various dilution from 10^0 (undiluted) to 10^−6."}, "murine C-type retrovirus": {"test_system": "murine C-type retrovirus", "assay_type": "cell-based", "conditions": "culture medium; for Titer: control 5,000; for effectiveness in inactivating the retrovirus: supercritical fluid, approximately 3,000 psig and 40° C.", "text": "as §1, §2, §3, §4, §5"}, "[1]": {"conditions": "runs CFI-28 to CFI-30: 3,000 psig, 41 C., 30 mins, serum"}, "[2]": {"conditions": "runs CFI-28 to CFI-30: 3,000 psig, 41 C., 30 mins, serum, polybrene, control 65,000"}, "[3]": {"conditions": "runs CFI-33 (Fr-22), CFI-35 (N2): 3,000 psig, 41 C., 60 mins, serum"}, "[4]": {"conditions": "runs CFI-33 (Fr-22), CFI-35 (N2): 3,000 psig, 41 C., 60 mins, serum, control 20,000, 5 = detection limit"}, "[5]": {"conditions": "run CFI-21: 3,250 psig, 41 C., 30 mins"}, "[6]": {"conditions": "run CFI-18: 2,560 psig, 43 C., 30 mins"}, "[7]": {"conditions": "run CFI-19: 2,690 psig, 41 C., 5 mins"}},
  "note": "Where two headings read alike, the source gives them in different places. Marks after values point to notes of the source that are not given here.",
  "data": [
    {"smiles": "CCC", "note": "[C3H8, propane]", "values": [
      {"measurement": "- log10 Reduction", "setting": "murine-C retrovirus; [1]", "value": 1.4},
      {"measurement": "Titer", "setting": "murine-C retrovirus; [2]", "value": "2,500 cfu/2.3 ml"}
    ]},
    {"smiles": "FC(F)Cl", "note": "[Fr-22, chlorodifluoromethane]", "values": [
      {"measurement": "reduction of viral activity", "setting": "murine-C retrovirus; after 30 minutes of contacting the serum, approximately 3,000 psig and 40° C.", "value": "~3.2 log orders of magnitude"},
      {"measurement": "time to eliminate viral activity, within the detection limits of the assay", "setting": "murine-C retrovirus; approximately 3,000 psig and 40° C., serum", "value": "within five minutes"},
      {"measurement": "- log10 Reduction", "setting": "murine-C retrovirus; run CFI-31: 3,000 psig, 40 C., 5 mins, serum", "value": ">3.6"},
      {"measurement": "Titer", "setting": "murine-C retrovirus; run CFI-31: 3,000 psig, 40 C., 5 mins, serum, control 20,000, 5 = detection limit", "value": "<5* cfu/2.0 ml"},
      {"measurement": "- log10 Reduction", "setting": "murine-C retrovirus; run CFI-32: 3,000 psig, 40 C., 15 mins, serum", "value": 3.6},
      {"measurement": "Titer", "setting": "murine-C retrovirus; run CFI-32: 3,000 psig, 40 C., 15 mins, serum, control 20,000", "value": 5, "unit": "cfu/2.0 ml"},
      {"measurement": "- log10 Reduction", "setting": "murine-C retrovirus; [1]", "value": 3.2},
      {"measurement": "Titer", "setting": "murine-C retrovirus; [2]", "value": 40, "unit": "cfu/2.3 ml"},
      {"measurement": "- log10 Reduction", "setting": "murine-C retrovirus; [3]", "value": ">3.6"},
      {"measurement": "Titer", "setting": "murine-C retrovirus; [4]", "value": "<5* cfu/2.0 ml"}
    ]},
    {"smiles": "N#N", "note": "[N2, nitrogen]", "values": [
      {"measurement": "- log10 Reduction", "setting": "murine C-type retrovirus; [5]", "value": 0.2},
      {"measurement": "Titer", "setting": "murine C-type retrovirus; [5]", "value": "3,000 cfu/2.3 ml"},
      {"measurement": "effectiveness in inactivating the retrovirus", "setting": "murine C-type retrovirus", "value": "relatively ineffective"},
      {"measurement": "- log10 Reduction", "setting": "murine-C retrovirus; [3]", "value": 0.7},
      {"measurement": "Titer", "setting": "murine-C retrovirus; [4]", "value": "3,750 cfu/2.0 ml"}
    ]},
    {"smiles": "[N-]=[N+]=O", "note": "[N2O, nitrous oxide]", "values": [
      {"measurement": "- log10 Reduction", "setting": "murine C-type retrovirus; [6]", "value": 2.7},
      {"measurement": "Titer", "setting": "murine C-type retrovirus; [6]", "value": 10, "unit": "cfu/2.3 ml"},
      {"measurement": "- log10 Reduction", "setting": "murine C-type retrovirus; [7]", "value": 2.0},
      {"measurement": "Titer", "setting": "murine C-type retrovirus; [7]", "value": 50, "unit": "cfu/2.3 ml"},
      {"measurement": "- log10 Reduction", "setting": "murine C-type retrovirus; run CFI-20: 3,180 psig, 41 C., 121 mins", "value": ">3.0"},
      {"measurement": "Titer", "setting": "murine C-type retrovirus; run CFI-20: 3,180 psig, 41 C., 121 mins, 5 = detection limit", "value": "<5* cfu/2.3 ml"},
      {"measurement": "effectiveness in inactivating the retrovirus", "setting": "murine C-type retrovirus", "value": "very effective"},
      {"measurement": "reduction of virus activity", "setting": "murine-C retrovirus; 3,000 psig and 40° C., residence time 30 minutes, serum (CFI-27)", "value": 1.4, "unit": "logs"},
      {"measurement": "inactivation of the viral population, within the detection limits of the assay", "setting": "murine-C retrovirus; 5,000 psig and 40° C., residence time 30 minutes, serum (CFI-34)", "value": "inactivated the entire viral population"},
      {"measurement": "- log10 Reduction", "setting": "murine-C retrovirus; run CFI-26: 3,000 psig, 60 C., 30 mins, serum", "value": ">4.1"},
      {"measurement": "Titer", "setting": "murine-C retrovirus; run CFI-26: 3,000 psig, 60 C., 30 mins, serum, polybrene, 40 C. control 65,000, 5 = detection limit", "value": "<5* cfu/2.3 ml"},
      {"measurement": "- log10 Reduction", "setting": "murine-C retrovirus; run CFI-27: 3,000 psig, 40 C., 30 mins, serum", "value": 1.4},
      {"measurement": "Titer", "setting": "murine-C retrovirus; run CFI-27: 3,000 psig, 40 C., 30 mins, serum, polybrene, control 65,000", "value": "3,000 cfu/2.3 ml"},
      {"measurement": "- log10 Reduction", "setting": "murine-C retrovirus; run CFI-34: 5,000 psig, 41 C., 30 mins, serum", "value": ">3.6"},
      {"measurement": "Titer", "setting": "murine-C retrovirus; run CFI-34: 5,000 psig, 41 C., 30 mins, serum, control 20,000, 5 = detection limit", "value": "<5* cfu/2.0 ml"},
      {"measurement": "reduction of effectiveness by the presence of protein", "setting": "murine-C retrovirus; serum (CFI-27) compared with culture medium (CFI-18)", "value": "one to two orders of magnitude"}
    ]},
    {"smiles": "CCO", "note": "[ethanol]", "values": [
      {"measurement": "impact on the effect of supercritical nitrous oxide", "setting": "murine-C retrovirus; 2 mole % ethanol cosolvent, approximately 3,000 psig, 40° C., 30 minutes, serum", "value": "little or no impact"},
      {"measurement": "effect on the titer", "setting": "murine-C retrovirus; control without critical fluid, 40° C., 2 mole % ethanol in the serum", "value": "does not affect the titer"}
    ]}
  ]
}
